From US20070128217A1 (priority 2003, published 2007)

Columns and labels:
[1] = test system: antibodies in sera from SARS patients (sera 1a, 1b, 2, 6, 37, 62, London, SARS-yellow, SARS-green); assay type: binding, human; parameters: Binding of serum 6 to linear peptides of protein X1 of SARS-CoV Urbani / Binding of serum 37 to linear peptides of protein X1 of SARS-CoV Urbani / Binding of serum 6 to looped/cyclic peptide (PEPSCAN-ELISA) / Binding of serum 37 to looped/cyclic peptide (PEPSCAN-ELISA) / Binding of serum 37 to looped/cyclic peptides of protein X1 of SARS-CoV Urbani / Binding of serum 6 to linear peptides of protein X2 / Binding of serum 37 to linear peptides of protein X2 / Binding of serum 37 to looped/cyclic peptides of protein X2 of SARS-CoV Urbani / Binding of serum 6 to linear peptides of protein M of SARS-CoV Urbani / Binding of serum 37 to linear peptides of protein M of SARS-CoV Urbani / Binding of serum 6 to looped/cyclic peptides of protein M of SARS-CoV Urbani / Binding of serum 37 to looped/cyclic peptides of protein M of SARS-CoV Urbani / Binding of serum 6 to linear peptides of protein X3 of SARS-CoV Urbani / Binding of serum 37 to linear peptides of protein X3 of SARS-CoV Urbani / Binding of serum 37 to looped/cyclic peptides of protein X3 of SARS-CoV Urbani / Binding of serum 6 to linear peptides of protein X4 of SARS-CoV Urbani / Binding of serum 37 to linear peptides of protein X4 of SARS-CoV Urbani / Binding of serum 37 to looped/cyclic peptides of protein X4 of SARS-CoV Urbani / Binding of serum 6 to linear peptides of protein X5 of SARS-CoV Urbani / Binding of serum 37 to linear peptides of protein X5 of SARS-CoV Urbani / Binding of serum 37 to looped/cyclic peptides of protein X5 of SARS-CoV Urbani / Binding of serum 6 to linear peptides of protein N of SARS-CoV Urbani / Binding of serum 37 to linear peptides of protein N of SARS-CoV Urbani / Binding of serum 6 to linear peptide (PEPSCAN-ELISA) / Binding of serum 1a to looped/cyclic peptides of protein N of SARS-CoV Urbani / Binding of serum 1b to looped/cyclic peptides of protein N of SARS-CoV Urbani / Binding of serum 2 to looped/cyclic peptides of protein N of SARS-CoV Urbani / Binding of serum 6 to looped/cyclic peptides of protein N of SARS-CoV Urbani / Binding of serum 37 to looped/cyclic peptides of protein N of SARS-CoV Urbani / Binding of serum 62 to looped/cyclic peptides of protein N of SARS-CoV Urbani / Binding of serum London to looped/cyclic peptides of protein N of SARS-CoV Urbani / Binding of serum SARS-green to looped/cyclic peptides of protein N of SARS-CoV Urbani: unit not given here
[2] = test system: recombinant human anti-SARS-CoV antibody 03-018; assay type: binding; parameters: Binding of antibody 03-018 to linear peptides of the N protein of SARS-CoV Urbani / Binding of antibody 03-018 to looped/cyclic peptides of the N protein of SARS-CoV Urbani: unit not given here
[3] = test system: control sera (pooled serum of ten healthy LUMC hospital workers; commercial negative donor pooled serum from the Dutch bloodbank); assay type: binding, human; parameters: Binding of Control serum LUMC to linear peptides / Binding of Control serum Blood-bank to linear peptides / Binding of Control serum LUMC to looped peptides / Binding of Control Serum Blood-Bank to Looped peptides / Binding of Control serum LUMC to linear peptides of the protein M of SARS-CoV Urbani / Binding of Control serum Blood-bank to linear peptides of the protein M of SARS-CoV Urbani / Binding of Control serum LUMC to looped peptides of the protein M of SARS-CoV Urbani / Binding of Control Serum Blood-Bank to Looped peptides of the protein M of SARS-CoV Urbani: unit not given here
[4] = test system: rabbit serum obtained by immunizing a rabbit with the SARS-CoV strain Frankfurt 1; assay type: binding; parameters: Binding of a rabbit serum to linear peptides / Binding of a rabbit serum to looped peptides / Rabbit serum linear peptides / Rabbit serum looped peptides / Binding of a rabbit serum to linear peptides of protein N of SARS-CoV Urbani (Rabbit serum linear peptides) / Binding of a rabbit serum to looped/cyclic peptides of protein N of SARS-CoV Urbani (Rabbit serum looped peptides): unit not given here

Row | Sequence | Binding of serum 1a to linear peptides of protein N of SARS-CoV Urbani [1] | Binding of serum 1a to looped/cyclic peptides of protein N of SARS-CoV Urbani [1] | Binding of serum 1b to linear peptides of protein N of SARS-CoV Urbani [1] | Binding of serum 1b to looped/cyclic peptides of protein N of SARS-CoV Urbani [1] | Binding of serum 2 to linear peptides of protein N of SARS-CoV Urbani [1] | Binding of serum 2 to looped/cyclic peptides of protein N of SARS-CoV Urbani [1] | Binding of serum 6 to looped/cyclic peptides of protein N of SARS-CoV Urbani [1] | Binding of serum 37 to looped/cyclic peptides of protein N of SARS-CoV Urbani [1] | Binding of serum 62 to looped/cyclic peptides of protein N of SARS-CoV Urbani [1] | Binding of serum London to looped/cyclic peptides of protein N of SARS-CoV Urbani [1] | Binding of serum SARS-green to looped/cyclic peptides of protein N of SARS-CoV Urbani [1] | Binding of serum SARS-yellow to looped/cyclic peptides of protein N of SARS-CoV Urbani [1] | Binding of Control Serum Blood-Bank to Looped peptides [3] | Binding of Control serum Blood-bank to linear peptides [3] | Binding of Control serum LUMC to linear peptides [3] | Binding of Control serum LUMC to looped peptides [3] | Binding of a rabbit serum to linear peptides of protein N of SARS-CoV Urbani (Rabbit serum linear peptides) [4] | Binding of a rabbit serum to looped/cyclic peptides of protein N of SARS-CoV Urbani (Rabbit serum looped peptides) [4] | Binding of antibody 03-018 to linear peptides of the N protein of SARS-CoV Urbani [2] | Binding of antibody 03-018 to looped/cyclic peptides of the N protein of SARS-CoV Urbani [2] | other results
1 | SAPRITFGGPTDSTD | 0.2 | 0.3 | 0.2 | 0.2 | 0.1 | 0.2 | 0.1 | 0.5 | 0.3 | 0.3 | 0.9 | 0.4 | 0.5 | 0.4 | 0.5 | 0.4 | 0.2 | 0.5 |  |  | Binding of serum 6 to linear peptides of protein N of SARS-CoV Urbani [1]: 0.1; Binding of serum 37 to linear peptides of protein N of SARS-CoV Urbani [1]: 0.7; Binding of serum 62 to linear peptides of protein N of SARS-CoV Urbani [1]: 0.6; Binding of serum London to linear peptides of protein N of SARS-CoV Urbani [1]: 0.5; Binding of serum SARS-green to linear peptides of protein N of SARS-CoV Urbani [1]: 0.6; Binding of serum SARS-yellow to linear peptides of protein N of SARS-CoV Urbani [1]: 0.4; Recognition of the peptide by antibody 03-018 [2]: recognized
2 | SASAFFGMSRIGMEV | 0.3 | 0.5 | 0.2 | 0.3 | 0.2 | 0.6 | 0.5 | 0.8 | 0.6 | 1.6 | 0.4 | 0.9 |  |  |  |  | 0.1 | 0.6 | 0.1 | 0.2 | Binding of serum 6 to linear peptides of protein N of SARS-CoV Urbani [1]: 0.2; Binding of serum 37 to linear peptides of protein N of SARS-CoV Urbani [1]: 0.7; Binding of serum 62 to linear peptides of protein N of SARS-CoV Urbani [1]: 0.6; Binding of serum London to linear peptides of protein N of SARS-CoV Urbani [1]: 0.5; Binding of serum SARS-green to linear peptides of protein N of SARS-CoV Urbani [1]: 0.4; Binding of serum SARS-yellow to linear peptides of protein N of SARS-CoV Urbani [1]: 0.7; Control Serum Blood-Bank Looped peptides [3]: 0.7; Control serum Blood-bank linear peptides [3]: 0.7; Control serum LUMC linear peptides [3]: 0.6; Control serum LUMC looped peptides [3]: 0.7
3 | SKKPRQKRTATKQYN |  | 0.3 |  | 0.1 |  | 0.4 | 0.3 | 0.6 | 0.6 | 0.5 | 0.1 | 0.3 | 0.6 | 0.8 | 0.7 | 0.5 | 0.2 | 0.1 | 0.1 | 0.2 | Binding of serum 1a to linear peptide (PEPSCAN-ELISA) [1]: 0.2; Binding of serum 1b to linear peptide (PEPSCAN-ELISA) [1]: 0.1; Binding of serum 2 to linear peptide (PEPSCAN-ELISA) [1]: 0.3; Binding of serum 6 to linear peptide (PEPSCAN-ELISA) [1]: 0.2; Binding of serum 37 to linear peptide (PEPSCAN-ELISA) [1]: 0.6; Binding of serum 62 to linear peptide (PEPSCAN-ELISA) [1]: 0.7; Binding of serum London to linear peptide (PEPSCAN-ELISA) [1]: 0.5; Binding of serum SARS-green to linear peptide (PEPSCAN-ELISA) [1]: 0.1; Binding of serum SARS-yellow to linear peptide (PEPSCAN-ELISA) [1]: 0.4
4 | SQASSRSSSRSRGNS |  | 0.3 |  | 0.2 |  | 0.3 | 0.2 | 0.5 | 0.4 | 0.4 | 0.0 | 0.3 | 0.6 | 0.7 | 0.7 | 0.6 | 0.1 | 0.6 | 0.1 | 0.2 | Binding of serum 1a to linear peptide (PEPSCAN-ELISA) [1]: 0.2; Binding of serum 1b to linear peptide (PEPSCAN-ELISA) [1]: 0.1; Binding of serum 2 to linear peptide (PEPSCAN-ELISA) [1]: 0.2; Binding of serum 6 to linear peptide (PEPSCAN-ELISA) [1]: 0.4; Binding of serum 37 to linear peptide (PEPSCAN-ELISA) [1]: 0.6; Binding of serum 62 to linear peptide (PEPSCAN-ELISA) [1]: 0.6; Binding of serum London to linear peptide (PEPSCAN-ELISA) [1]: 0.4; Binding of serum SARS-green to linear peptide (PEPSCAN-ELISA) [1]: 0.2; Binding of serum SARS-yellow to linear peptide (PEPSCAN-ELISA) [1]: 0.6
